# Experimental data taken from US20130252930A1 (BIOMARIN PHARMACEUTICAL INC., priority 2010, published 2013).
# Like-named read-outs stand apart in the source and are kept apart here.
# Tests used:
# [1] = biological target: T1, Cyp21 enzyme (Human HEK 293-Cyp21 stable transfected cells) (Homo sapiens, UniProt P08686); assay: CYP21-HEK293 enzymatic assay (IC50) (Biological Example 11); format: cell-based; settings: HEK 293-Cyp21 stable transfected cells; read-out: CYP21-HEK293 enzymatic assay IC50 (Biological Example No. 11)
# T1 construct: expressed in transfected cells
# T1 sequence (P08686 1-495): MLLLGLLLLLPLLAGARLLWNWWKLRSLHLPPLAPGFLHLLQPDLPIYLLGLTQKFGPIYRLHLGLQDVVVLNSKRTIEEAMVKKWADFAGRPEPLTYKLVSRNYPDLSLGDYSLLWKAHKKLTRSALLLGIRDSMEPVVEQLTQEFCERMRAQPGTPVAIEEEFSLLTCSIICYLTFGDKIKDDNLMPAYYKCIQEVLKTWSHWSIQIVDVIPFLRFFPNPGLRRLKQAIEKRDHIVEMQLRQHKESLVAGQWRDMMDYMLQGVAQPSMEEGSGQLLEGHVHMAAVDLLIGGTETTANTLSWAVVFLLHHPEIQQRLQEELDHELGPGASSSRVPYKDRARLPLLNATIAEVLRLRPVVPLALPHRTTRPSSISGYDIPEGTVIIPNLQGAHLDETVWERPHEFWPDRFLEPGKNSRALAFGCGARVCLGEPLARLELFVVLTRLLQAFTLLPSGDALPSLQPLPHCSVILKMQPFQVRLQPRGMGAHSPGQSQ
# Method: This assay was used to determine compound activity against Cyp21 enzyme. […] The next day, 20 μL medium was carefully removed and 10 μL of 10× pre-made compounds in DMEM+10% FBS+10% methanol was transferred to the wells to final concentrations of 1000, 100, 10, 1, or 0.1 nM. Mock treatment was 1% methanol in growth media and the cells were left at 37° C., 5% CO2 for 5 hr. After the incubation, 10 μL of substrate progesterone (Sigma) was added to the wells to make a final concentration of 10 μM. The cells were incubated the cells at 37° C. for 20 hr. At the end of incubation, 90 μL of conditioned media was removed to measure DOC level by ELISA.
# The next day, the plates were washed twice with 250 μl of wash solution (0.015M PBS pH 7.4 containing 0.05% Tween 20). After being washed, the wells were blocked with 250 μL blocking buffer (3% BSA in 0.025M PBS, pH 7.4) at 37° C. for 2 h. The plates were washed again 3 times as before, and then 90 μL of sample /standards (prepared in complete growth media) was added into the appropriate wells followed by 10 μL of antibody solution (1:450 rabbit anti-DOC in 0.6% BSA/PBS). The plates were incubated at room temperature for 2 h on a shaker. The contents of the wells were removed and the plate was washed 4 times. After the final wash, 100 μL of secondary antibody (1:12000 HRP-goat-anti-rabbit IgG conjugate 0.6% BSA/PBS) was added into each well. […] The plate was washed again 4 times and 100 μL of TMB substrate solution was added to each well. The plate was incubated at room temperature for 10 min. 100 μL of stop solution was added to each well and the optical density was read at 450 nm.
# The mean absorbance value for each sample was used to determine the corresponding concentration from the standard curve. Data was analyzed with “log(antagonist) vs response variable slope” under “non-linear regression analysis” using Prism5 software.
# [2] = biological target: T2, CYP17 (human testicular microsome) (Homo sapiens, UniProt P05093); assay: CYP17 enzymatic assay (% inhibition at 10 nM), version 1 (Biological Example 5); format: biochemical; settings: 10 nM compound, DHEA by ELISA, read-out: Biological Example No. 5: CYP17 percent inhibition at 10 nM (version 1)
# T2 construct: using microsomal fraction from human testis (Celsis Cat #S00110) as the enzyme source; tissue Celsis S00110; host or cells: human testis microsomal fraction
# T2 sequence (P05093 1-508): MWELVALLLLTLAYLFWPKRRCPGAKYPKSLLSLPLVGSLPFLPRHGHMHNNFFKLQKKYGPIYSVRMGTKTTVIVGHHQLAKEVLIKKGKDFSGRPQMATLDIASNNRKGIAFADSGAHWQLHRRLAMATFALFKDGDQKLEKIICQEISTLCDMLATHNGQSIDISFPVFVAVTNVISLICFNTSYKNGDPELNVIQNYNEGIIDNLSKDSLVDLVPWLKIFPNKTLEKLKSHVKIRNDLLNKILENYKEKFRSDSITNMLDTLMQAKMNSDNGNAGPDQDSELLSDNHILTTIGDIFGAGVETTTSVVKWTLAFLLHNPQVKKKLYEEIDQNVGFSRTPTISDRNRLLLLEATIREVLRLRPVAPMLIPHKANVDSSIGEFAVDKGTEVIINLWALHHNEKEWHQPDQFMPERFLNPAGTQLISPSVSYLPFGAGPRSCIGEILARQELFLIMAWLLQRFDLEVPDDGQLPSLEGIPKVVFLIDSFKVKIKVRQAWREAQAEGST
# [3] = Human liver microsome stability assay (Biological Example 8b); settings: liver microsomes, pH 7.4
# Method: The reaction was started with addition of excess NADPH (5 mg/mL, 15 μL in 0.1 M potassium phosphate buffer, 1.0 mM EDTA, pH 7.4), the total volume is 45 μL (compound final concentration was 1 μM). […] 50 μL of the supernatant was transferred from each well into a 96-well sample plate containing 50 μL of ultra-pure water (Millipore) for LC-MS/MS analysis.
# [4] = biological target: T2, CYP17 (human testicular microsome); assay: CYP17 enzymatic assay (IC50) (Biological Example 4); format: biochemical
# [5] = biological target: T2, CYP17 (human testicular microsome); assay: CYP17 enzymatic assay (% inhibition at 1 nM) (Biological Example 12); format: biochemical; settings: compound at 1 nM
# [6] = human testicular microsome, DHEA by ELISA, read-out: Biological Example No. 4: CYP17 enzymatic assay IC50
# [7] = read-out: Biological Example No. 12: CYP17 enzymatic assay % inhibition at 1 nM
# [8] = human testicular microsome, read-out: Biological Example No. 4: CYP17 enzymatic assay IC50
# [9] = read-out: CYP17 enzymatic assay % inhibition at 1 nM (Biological Example No. 12)
# [10] = human testicular microsome, read-out: CYP17 enzymatic assay IC50 (Biological Example No. 4)
SMILES,IC50 [1] [nM],half-life at 1 μM [3] [min],"inhibition at 0.001 µM [5, 9] [%]",also measured
"CC1CC2C3=CC=C(c4cncc(F)c4)[C@@]3(C)CCC2[C@@]2(C)CCN(C)C(=O)C=C12 (stereo partly drawn) [Compound 394, (5aR,7aS)-8-(5-fluoropyridin-3-yl)-3,5a,7a,12-tetramethyl-3,4,5,5a,5b,6,7,7a,11,12-decahydrocyclopenta[5,6]naphtho[1,2-d]azepin-2(10bH)-one]",> 100,–,–,–
"C[C@]12CCCN(S(C)(=O)=O)CC1CCC1C2CC[C@]2(C)C(n3cncc3C#N)=CCC12 (stereo partly drawn) [Compound 431, 1-((5aR,7aS)-5a,7a-dimethyl-2-(methylsulfonyl)-1,2,3,4,5,5a,5b,6,7,7a,10,10a,10b,11,12,12a-hexadecahydrocyclopenta[5,6]naphtho[2,1-c]azepin-8-yl)-1H-imidazole-5-carbonitrile]",> 1000,–,–,–
"CN1CC[C@@]2(C)C(=CC1=O)CCC1C3=CC=C(c4cncc(F)c4)[C@@]3(C)CCC12 (stereo partly drawn) [Compound 392, (5aR,7aS)-8-(5-fluoropyridin-3-yl)-3,5a,7a-trimethyl-3,4,5,5a,5b,6,7,7a,11,12-decahydrocyclopenta[5,6]naphtho[1,2-d]azepin-2(10bH)-one]",> 100,–,–,–
"CC1CC2C3=CC=C(c4cccnc4)[C@@]3(C)CCC2[C@@]2(C)CCN(C)C(=O)C=C12 (stereo partly drawn) [Compound 393, (5aR,7aS)-3,5a,7a,12-tetramethyl-8-(pyridin-3-yl)-3,4,5,5a,5b,6,7,7a,11,12-decahydrocyclopenta[5,6]naphtho[1,2-d]azepin-2(10bH)-one]",10 to 100,–,–,–
"C[C@]12CC[C@H]3[C@@H](CC[C@H]4C[C@@H](O)CC[C@@]43C)C1=CC=C2c1cccnc1 [Compound 163, (5S,8R,9S,10S,13S)-10,13-dimethyl-17-(pyridin-3-yl)-2,3,4,5,6,7,8,9,10,11,12,13-dodecahydro-1H-cyclopenta[a]phenanthren-3-ol]",–,> 50,–,"inhibition at 0.01 µM [2]: > 80%; IC50 [4, 6]: < 11 nM"
"C[C@]12CC[C@H](O)CC1=CCC1C2CC[C@]2(C)C(c3cncc(Cl)c3)=CCC12 (stereo partly drawn) [Compound 280, (3S,10R,13S)-17-(5-chloropyridin-3-yl)-10,13-dimethyl-2,3,4,7,8,9,10,11,12,13,14,15-dodecahydro-1H-cyclopenta[a]phenanthren-3-ol]",–,1 to 50,–,"inhibition at 0.001 µM [5, 7]: > 50%; IC50 [4, 8]: < 11 nM"
"C=C1C[C@H]2C3=CC=C(c4cccnc4)[C@@]3(C)CC[C@@H]2[C@@]2(C)CCC(=O)C=C12 [Compound 348, (10R,13S)-10,13-dimethyl-6-methylene-17-(pyridin-3-yl)-6,7,8,9,10,11,12,13-octahydro-1H-cyclopenta[a]phenanthren-3(2H)-one]",10 to 100,–,–,–
"C[C@]12CCC3C(CC(F)[C@@]4(O)C[C@@H](O)CC[C@]34C)C1CC=C2c1cccnc1 (stereo partly drawn) [Compound 323, (3S,5R,10R,13S)-6-fluoro-10,13-dimethyl-17-(pyridin-3-yl)-2,3,4,5,6,7,8,9,10,11,12,13,14,15-tetradecahydro-1H-cyclopenta[a]phenanthrene-3,5-diol]",–,1 to 50,–,"inhibition at 0.001 µM [5, 7]: > 50%; IC50 [4, 8]: < 11 nM"
"C=C1C[C@H]2C3=CC=C(c4cncc(F)c4)[C@@]3(C)CC[C@@H]2[C@@]2(C)CCC(=O)C=C12 [Compound 353, (10R,13S)-17-(5-fluoropyridin-3-yl)-10,13-dimethyl-6-methylene-6,7,8,9,10,11,12,13-octahydro-1H-cyclopenta[a]phenanthren-3(2H)-one]",10 to 100,–,–,–
"C[C@]12CCC3C(CC(O)C45CC4CC[C@]35C)C1=CC=C2c1cccnc1 (stereo partly drawn) [Compound 200, (3aR,5aS)-3a,5a-dimethyl-6-(pyridin-3-yl)-1,1a,2,3,3a,3b,4,5,5a,8b,9,10-dodecahydrocyclopenta[a]cyclopropa[2,3]cyclopenta[1,2-f]naphthalen-10-ol]",–,1 to 50,> 50,"IC50 [4, 10]: < 11 nM"
"C#C[C@]1(O)CC[C@@]2(C)C(CCC3C2CC[C@]2(C)C(c4cccnc4)=CCC32)C1 (stereo partly drawn) [Compound 474, (3S,10S,13S)-3-ethynyl-10,13-dimethyl-17-(pyridin-3-yl)-2,3,4,5,6,7,8,9,10,11,12,13,14,15-tetradecahydro-1H-cyclopenta[a]phenanthren-3-ol]",–,> 50,10 to 50,"IC50 [4, 10]: > 25 nM"
"C[C@]12CCC(=O)CCC1=CCC1[C@@H]2CC[C@]2(C)C(n3ccnc3)=CC[C@@H]12 (stereo partly drawn) [Compound 106, (3aS,10aR,10bS,12aS)-1-(1H-imidazol-1-yl)-10a,12a-dimethyl-3,3a,3b,4,6,7,10,10a,10b,11,12,12a-dodecahydrocyclohepta[a]cyclopenta[f]naphthalen-8(9H)-one]",–,1 to 50,–,"inhibition at 0.01 µM [2]: > 80%; IC50 [4, 6]: < 11 nM"
"C[C@]12CCCCC1C(O)C[C@@H]1[C@@H]2CC[C@]2(C)C(n3ccnc3)=CC[C@@H]12 (stereo partly drawn) [Compound 85, (10R,13S)-17-(1H-imidazol-1-yl)-10,13-dimethyl-2,3,4,5,6,7,8,9,10,11,12,13,14,15-tetradecahydro-1H-cyclopenta[a]phenanthren-6-ol]",–,1 to 50,–,"inhibition at 0.01 µM [2]: 50 to 80%; IC50 [4, 6]: < 11 nM"
"C[C@]12CC[C@@H](NC(=O)C3CC3)CC1CCC1C2CC[C@]2(C)C(c3cccnc3)=CCC12 (stereo partly drawn) [Compound 220, N-((3R,10S,13S)-10,13-dimethyl-17-(pyridin-3-yl)-2,3,4,5,6,7,8,9,10,11,12,13,14,15-tetradecahydro-1H-cyclopenta[a]phenanthren-3-yl)cyclopropanecarboxamide]",–,1 to 50,> 50,"IC50 [4, 10]: < 11 nM"
"CCCC(=O)N[C@@H]1CC[C@@]2(C)C(=CC[C@@H]3[C@@H]2CC[C@]2(C)C(c4cccnc4)=CC[C@@H]32)C1 [Compound 235, N-((3R,10R,13S)-10,13-dimethyl-17-(pyridin-3-yl)-2,3,4,7,8,9,10,11,12,13,14,15-dodecahydro-1H-cyclopenta[a]phenanthren-3-yl)butyramide]",–,1 to 50,> 50,"IC50 [4, 10]: < 11 nM"
"C[C@]12CC[C@H](O)CC1=CCC1C2CC[C@]2(C)C(c3cncc(F)c3)=CCC12 (stereo partly drawn) [Compound 274, (3S,10R,13S)-17-(5-fluoropyridin-3-yl)-10,13-dimethyl-2,3,4,7,8,9,10,11,12,13,14,15-dodecahydro-1H-cyclopenta[a]phenanthren-3-ol]",–,> 50,–,"inhibition at 0.001 µM [5, 7]: > 50%; IC50 [4, 8]: < 11 nM"
"C[C@]12CCC(NC(=O)C3CCC3)CC1=CCC1C2CC[C@]2(C)C(n3ccnc3)=CCC12 (stereo partly drawn) [Compound 240, N-((10R,13S)-17-(1H-imidazol-1-yl)-10,13-dimethyl-2,3,4,7,8,9,10,11,12,13,14,15-dodecahydro-1H-cyclopenta[a]phenanthren-3-yl)cyclobutanecarboxamide]",–,1 to 50,> 50,"IC50 [4, 10]: < 11 nM"
"C[C@]1(O)CC[C@@]2(C)C(CCC3C2CC[C@]2(C)C(c4cccnc4)=CCC32)C1 (stereo partly drawn) [Compound 254, (3S,10S,13S)-3,10,13-trimethyl-17-(pyridin-3-yl)-2,3,4,5,6,7,8,9,10,11,12,13,14,15-tetradecahydro-1H-cyclopenta[a]phenanthren-3-ol]",–,1 to 50,> 50,IC50 [4]: < 11 nM
"C[C@]1(O)CC[C@@]2(C)C(CCC3C4=CC=C(c5cccnc5)[C@@]4(C)CCC32)C1 (stereo partly drawn) [Compound 259, (3S,10S,13S)-3,10,13-trimethyl-17-(pyridin-3-yl)-2,3,4,5,6,7,8,9,10,11,12,13-dodecahydro-1H-cyclopenta[a]phenanthren-3-ol]",–,1 to 50,10 to 50,IC50 [4]: < 11 nM
